The text below walks through data of patent US8796285B2, “Pyrazolo [1,5-a]-pyrimidones derivatives and pharmaceutical compositions and uses thereof” (Hebei Medical University, priority 2009, dated 2014).

The target of one test is T1, KCNQ2/3 (Homo sapiens, UniProt O43525+O43526).
T1 construct: expressed in transfected cells
In words: High throughput atomic absorption Rb+ efflux testing, KCNQ2/3. The conditions noted are these: Rb+ efflux by atomic absorption. The format is cell-based.

In test [1] the target is KCNQ4 potassium ion channel (Homo sapiens, UniProt P56696). In words: High throughput atomic absorption Rb+ efflux testing, CHO cell of KCNQ4 channel. Particulars: for EC50: CHO cell of KCNQ4 channel. The format is cell-based. From the text: Atomic absorption Rb^+ efflux testing is a fast and safe selection method for high throughput potassium channel moderator, and is characterized in that the activity of the ion channel and the control effect of the opener are directly reflected. Rb and K have similar atomic size, and potassium ion channel is permeable to Rb^+. By testing concentration of the Rb^+ efflux, a status of the potassium channel, which is an open status or a close status, can be determined. Rb has specific absorption at 780 nm, and Rb^+ concentration can be determined by atomic absorption spectroscopy. Accordingly, analysis method of atomic absorption spectroscopy can be used to select the opener/inhibitor of potassium channel through high throughput of Rb^+ efflux.
Stable cell transfer of CHO cell of KCNQ4 channel at log phase and inoculate in 96-well culture plate at a density of 2×10^4 unit/well. Each concentration has a triplicate-hole setting, and a control setting with solvent of corresponding concentration. Allow growth against the well-wall overnight, then discard the culture medium, add 200 μl loading buffer which contains RbCl, and culture in 5% CO2 at 37° C. for 3 hours. Then remove the loading buffer and wash with wash buffer for 3 times. Screen for the KCNQ opener, dilute testing compound with depolarization buffer, add 200 μl of the above solvent into the cell and allow reaction for 10 minutes. Incubate for 10 minutes, then carefully draw 200 μl supernatant to another 96-well culture plate, use ICR8000 atomic absorption spectrometry to determine the Rb^+ atomic absorption at 780 nm. Based on the equation Fsupern=(Rb_supern/cpd/Rb_supern/d)×100, calculate the corresponding rate of efflux.

A further test concerns Male SD rats. In words: Formalin-induced pain model. In kind it is in vivo. The conditions noted are these: rat. How it is done: Pharmaceutical composition used: the compound number 42 for the testing group, no medication for the positive control group, which is a blank control model.
Testing method: Male SD rats are randomly divided into control group, ipsilateral treatment group (treatment on the same side) and contralateral treatment group (treatment on the opposite side). After 30 minutes from administration of pharmaceutical compound, administer 20 μl of 20 g/L formalin by subcutaneous injection in foot bottom of back paw on the same side or the opposite side of pharmaceutical compound administration, an occurrence of typical lateral swinging and shaking of rat's tail is deemed as successful in preparing induced-pain model, in the next 60 minutes, observe the rat's licking and biting behavior towards the formalin's injection paw at each 5-min interval.

[2] abbreviates: Rb+ efflux by atomic absorption, read-out: KCNQ4.

Read-outs that look alike come from different tables or passages of the source.

Turning to `COc1ccc(-c2c(C(F)(F)F)nn3c(=O)cc(C(F)(F)F)[nH]c23)cc1OC` [Compound 2, 3-(3,4-dimethoxyphenyl)-2,5-bis(trifluoromethyl)pyrazolo[1,5-a]pyrimidin-7(4H)-one], the values for the EC50 (on KCNQ2/3; in test [1] (setting [2])) were 5.65 ± 3.13 µM and 12.1 ± 0.23 µM, respectively.

Take `CCOC(=O)c1c(C(F)(F)F)nn2c(=O)cc(-c3ccccc3)[nH]c12` [Compound 5]: the EC50 at KCNQ2/3 was found to be 100 ± 13.3 µM; in test [1] (setting [2]) it was 67.8 ± 2.67 µM.

Regarding `O=c1cc(-c2ccc(Cl)cc2)[nH]c2c(-c3ccc(F)cc3)c(C(F)(F)F)nn12` [Compound 8, 2-trifluoromethyl-3-(4-fluorophenyl)-5-(4-chlorophenyl)-pyrazole[1,5-a]pyrimidin-7(4H)-one], the EC50 is 4.76 ± 1.35 µM on KCNQ2/3 and 24.5 ± 4.67 µM in test [1] (setting [2]).

Consider `O=c1cc(-c2cc(F)c(Cl)nc2Cl)[nH]c2c(-c3ccc(F)cc3)c(C(F)(F)F)nn12` [Compound 18, 5-(2,6-dichloro-5-fluoropyrindin-3-yl)-3-(4-fluorophenyl)-2-(trifluoromethyl)pyrazolo[1,5-a]pyrimidin-7(4H)-one], for which the EC50 was 78.7 ± 12.3 µM on KCNQ2/3 and 120 ± 3.23 µM in test [1] (setting [2]).

Consider `O=c1cc(-c2ccccc2)[nH]c2c(-c3ccccc3)c(C(F)(F)F)nn12` [Compound 19, 3,5-diphenyl-2-(trifluoromethyl)pyrazolo[1,5-a]pyrimidin-7(4H)-one], for which the EC50 on KCNQ2/3 worked out at 40.2 ± 2.34 µM; in test [1] (setting [2]) it was 62.1 ± 1.12 µM.

Consider `O=c1cc(C(F)(F)F)[nH]c2c(-c3ccccc3)c(C(F)(F)F)nn12` [Compound 20, 2,5 bis(trifluoromethyl)-3-phenylpyrazolo [1,5-a]pyrimidin-7(4H)-one], for which the results for the EC50 (at KCNQ2/3; in test [1] (setting [2])) were 1.28 ± 1.16 µM and 5.87 ± 2.67 µM, respectively.

With `O=c1cc(-c2cc(F)c(Cl)nc2Cl)[nH]c2c(-c3ccc(F)cc3)c(C(F)(F)F)nn12` [Compound 22], the figures for the EC50 (at KCNQ2/3; in test [1] (setting [2])) were 1.28 ± 0.12 µM and 0.15 ± 0.09 µM, respectively.

For the compound `COc1ccc(-c2c(C(F)(F)F)nn3c(=O)cc(-c4cc(F)c(Cl)nc4Cl)[nH]c23)cc1OC` [Compound 23], the figures for the EC50 (at KCNQ2/3; in test [1] (setting [2])) were 22.1 ± 1.23 µM and 10.3 ± 0.43 µM, respectively.

Turning to `O=c1cc(CN2CCCCC2)[nH]c2c(-c3ccccc3)c(C(F)(F)F)nn12` [Compound 25, 5-(piperidin-1-ylmethyl)-3-phenyl-2-trifluoromethylpyrazolo[1,5-a]pyrimidin-7(4H)-one], the EC50 is 85.3 ± 3.45 µM at KCNQ2/3 and 35 ± 1.21 µM in test [1] (setting [2]).

Turning to `O=c1cc(-c2cccc([N+](=O)[O-])c2)[nH]c2c(-c3ccccc3)c(C(F)(F)F)nn12` [Compound 30, 5-(3-nitrophenyl)-3-phenyl-2-trifluoromethylpyrazolo[1,5-a]pyrimidin-7(4H)-one], the EC50 was 1.26 ± 0.68 µM at KCNQ2/3 and 12.2 ± 0.82 µM in test [1] (setting [2]).

On to `O=C(Cc1ccc(C(F)(F)F)cc1)NCc1cc(=O)n2nc(C(F)(F)F)c(-c3ccccc3)c2[nH]1` [Compound 35], for which the figures for the EC50 (at KCNQ2/3; in test [1] (setting [2])) were 138 ± 9.28 µM and 44.5 ± 5.28 µM, respectively.

Take `O=c1cc(C(F)(F)F)[nH]c2c(-c3cccc4ccccc34)c(C(F)(F)F)nn12` [Compound 38, 2,5-bis(trifluoromethyl)-3-(naphthalen-1-yl)pyrazolo[1,5-a]pyrimidin-7(4H)-one]: the EC50 came out at 9.29 ± 26.3 µM at KCNQ2/3 and 4.82 ± 3.45 µM in test [1] (setting [2]).

For the compound `O=c1cc(CCl)[nH]c2c(-c3cccc4ccccc34)c(C(F)(F)F)nn12` [Compound 39, 5-chloromethyl-3-(naphthalen-1-yl)-2-trifluoromethylpyrazolo[1,5-a]pyrimidin-7(4H)-one], the figures for the EC50 (on KCNQ2/3; in test [1] (setting [2])) were 5.21 ± 3.21 µM and 21.7 ± 9.72 µM, respectively.

Regarding `O=c1cc(-c2cc(F)c(Cl)nc2Cl)[nH]c2c(-c3cccc4ccccc34)c(C(F)(F)F)nn12` [Compound 42], the EC50 on KCNQ2/3 is 0.53 ± 0.28 µM; in test [1] (Rb+ efflux, 0.03-10 μM, FIG. 4, read-out: EC50) it was 0.96 ± 0.51 µM. Also, the “accumulated time of licking/biting back paw, first phase” value in the test on Male SD rats (0-10 min after formalin injection, treatment vs control group, p>0.05) is “no significant difference”. The “accumulated time of licking/biting back paw, second phase” value in the test with Male SD rats (10-60 min after formalin, ipsilateral treatment group vs control group, p<0.05) is on record as “decrease in accumulated time of licking/biting back paw”. For the same compound, the “activating effect on the CHO cell of the KCNQ4 potassium ion channel” value in test [1] (Rb+ efflux at 0.03, 0.1, 0.6, 1, 3 and 10 μM, FIG. 4) is “dose-dependent activating effect”.

On to `COc1ccc(-c2cc(=O)n3nc(C(F)(F)F)c(-c4cccc5ccccc45)c3[nH]2)cc1` [Compound 47, 5-(4-methoxyphenyl)-3-(naphthalen-1-yl)-2-trifluoromethylpyrazolo[1,5-a]pyrimidin-7(4H)-one], for which the EC50 was determined as 89.2 ± 24.2 µM on KCNQ2/3 and 46.2 ± 2.34 µM in test [1] (setting [2]).

As to `O=c1cc(-c2cc(F)c(Cl)nc2Cl)[nH]c2c(-c3cccs3)c(C(F)(F)F)nn12` [Compound 60], the EC50 was determined as 5.32 ± 2.23 µM on KCNQ2/3 and 1.14 ± 0.34 µM in test [1] (setting [2]).

On to `O=c1cc(CN2CCNCC2)[nH]c2c(-c3cccs3)c(C(F)(F)F)nn12` [Compound 61], for which the EC50 at KCNQ2/3 turned out to be 77.7 ± 21.3 µM; in test [1] (setting [2]) it was 33.3 ± 2.12 µM.

Turning to `CCOC(=O)c1c(-c2ccc(Cl)cc2)nn2c(=O)cc(C(F)(F)F)[nH]c12` [Compound 73, ethyl 7-oxo-2-(4-chlorophenyl)-5-(trifluoromethyl)-4,7-dihydropyrazolo[1,5-a]pyrimidine-3-carboxylate], the EC50 at KCNQ2/3 was found to be 135 ± 32.2 µM; in test [1] (setting [2]), 60.6 ± 3.28 µM.

As to `O=c1cc(C(F)(F)F)[nH]c2c(-c3c[nH]c4ccccc34)c(-c3ccc(Cl)cc3)nn12` [Compound 77, 2-(4-chlorophenyl)-3-(1H-indol-3-yl)-5-trifluoromethylpyrazolo[1,5-a]pyrimidin-7(4H)-one], the EC50 at KCNQ2/3 stood at 32.2 ± 9.32 µM; in test [1] (setting [2]) it was 82.3 ± 19.3 µM.

For `O=C(OCc1cc(=O)n2nc(C(F)(F)F)c(N3CCNCC3)c2[nH]1)C(F)(F)F` [Compound 86, (2-trifluoromethyl-3-piperazinyl-7-oxo-4,7-dihydropyrazolo[1,5-a]pyrimidin-5-yl)methyl-2,2,2-trifluoroacetate], the EC50 at KCNQ2/3 turned out to be 98.3 ± 65.2 µM; in test [1] (setting [2]), 50.1 ± 1.34 µM.

On to `O=c1cc(-c2cc(F)c(Cl)nc2Cl)[nH]c2c(-c3cccs3)c(C(Cl)(Cl)Cl)nn12` [Compound 94, 5-(2,6-dichloro-5-fluoropyrido)-3-(thiophen-2-yl)-2-trichloromethyl pyrazolo[1,5-a]pyrimidin-7(4H)-one], for which the results for the EC50 (on KCNQ2/3; in test [1] (setting [2])) were 0.28 ± 0.32 µM and 0.54 ± 0.23 µM, respectively.

Consider `O=c1cc(CCl)[nH]c2c(-c3cccs3)c(C(F)(F)F)nn12` [Compound 96, 5-chloromethyl-3-(thiophen-2-yl)-2-trifluoromethylpyrazolo[1,5-a]pyrimidin-7(4H)-one], for which the EC50 in test [1] (setting [2]) is 5.41 ± 2.29 µM.

With `O=c1cc(-c2cc(F)c(F)cc2F)[nH]c2c(-c3ccccc3)c(C(Cl)(Cl)Cl)nn12` [Compound 99, 3-phenyl-2-trichloromethyl-5-(2,4,5-trifluorophenyl)pyrazolo[1,5-a]pyrimidin-7(4H)-one], the figures for the EC50 (at KCNQ2/3; in test [1] (setting [2])) were 54.5 ± 32.1 µM and 18.4 ± 1.34 µM, respectively.

On to `O=c1cc(CCl)[nH]c2c(-c3cccs3)c(Cl)nn12` [Compound 108, 2-chloro-3-(thiophen-2-yl)-5-chloromethylpyrazolo[1,5-a]pyrimidin-7(4H)-one], for which the values for the EC50 (on KCNQ2/3; in test [1] (setting [2])) were 56.8 ± 19.4 µM and 91.2 ± 33.2 µM, respectively.

As for `O=C(NCc1cc(=O)n2nc(Cl)c(-c3ccc4ccccc4c3)c2[nH]1)C(F)(F)F` [Compound 116, N-((2-chloro-3-(naphthalen-2-yl)-7-oxo-4,7-dihydropyrazolo[1,5-a]pyrimidin-5-yl)methyl)-2,2,2-trifluoroacetamide], the EC50 at KCNQ2/3 is 210 ± 9.8 µM; in test [1] (setting [2]) it was 43.2 ± 13.7 µM.
